Data published in patent publication US20190224278A1, “PRODUCING METHOD OF ANTIMICROBIAL PEPTIDE WITH ENHANCED ADHESION AND USES THEREOF” (Intelligent Synthetic Biology Center, priority 2018, published 2019).
Converted amounts (≈) assume the structure as drawn. Non-standard residues stand in square brackets, D forms with d. Residues, ends and D or L forms follow the SMILES beside them. No end group written: not given here. Dopa = N[C@@H](Cc1ccc(O)c(O)c1)C(=O)O

system: E. coli; assay: not given; format: cell-based, Escherichia coli; conditions: 18 h
Procedure: In order to confirm the antimicrobial activity of the adhesive antimicrobial peptides prepared in Experimental Example 1-1, the minimal inhibitory concentration (MIC) which inhibits the growth of E. coli was identified by using a method disclosed in Nature Protocols. 2008; 3(2):163-175. Briefly, a culture medium in which a single colony had been grown for 16 hours was subcultured and grown until OD600 reached 0.4 to 0.6, which corresponds to logarithmic growth. Thereafter, the number of cells was calculated according to the OD values, and the number of cells was set at 10^6 cell/mL. When a Mueller-Hinton Broth (MHB) was loaded to a polypropylene 96-well plate, 90 μL was added to the first row of the plate and 100 μL was added to the control wells, and 50 μL was added to the remaining wells. Thereafter, the peptide solution was prepared at a concentration of […], and 10 μL thereof was added to each well of the first row. The peptide solution was mixed with the medium using a multi-pipette, and then 50 μL was transferred to the second row (B). At this time, the peptide was diluted to half concentration, and the peptide was transferred up to the seventh row by the same method so that the peptide (64 μM to 1 μM) was dissolved in the medium. 10^6 cell/mL of Escherichia coli, which had been prepared previously, was added thereto, and then the plate was cultured for 18 hours. Thus, the final concentration range of the peptide used in the experiment became 32 μM to 0.5 μM. After culturing for 18 hours, the OD values were measured using a microplate reader (Tecan i-control 200 pro), and the MIC values were identified.

CC[C@H](C)[C@H](NC(=O)CNC(=O)[C@H](CCCCN)NC(=O)[C@H](CCCCN)NC(=O)[C@H](CCC(N)=O)NC(=O)[C@H](CC(C)C)NC(=O)[C@H](CCCCN)NC(=O)[C@H](CC(C)C)NC(=O)[C@H](CC(C)C)NC(=O)[C@H](CCCCN)NC(=O)[C@H](CCCCN)NC(=O)[C@H](CC(C)C)NC(=O)[C@H](CC(C)C)NC(=O)[C@H](CCCCN)NC(=O)[C@H](CCSC)NC(=O)[C@H](C)NC(=O)[C@H](CCCCN)NC(=O)[C@@H]1CCCN1C(=O)[C@H](C)N)C(=O)NCC(=O)NCC(=O)NCC(=O)NCC(=O)N[C@@H](CO)C(=O)NCC(=O)NCC(=O)NCC(=O)NCC(=O)N[C@@H](CO)C(=O)N[C@@H](Cc1ccc(O)c(O)c1)C(=O)N[C@@H](Cc1ccc(O)c(O)c1)C(=O)N[C@@H](Cc1ccc(O)c(O)c1)C(=O)O [NKC-(G4S)2-DOPA3] (H-APKAMKLLKKLLKLQKKGIGGGGSGGGGS[Dopa][Dopa][Dopa]-OH; N-terminus and C-terminus assumed) and CC[C@H](C)[C@H](NC(=O)CNC(=O)[C@H](CCCCN)NC(=O)[C@H](CCCCN)NC(=O)[C@H](CCC(N)=O)NC(=O)[C@H](CC(C)C)NC(=O)[C@H](CCCCN)NC(=O)[C@H](CC(C)C)NC(=O)[C@H](CC(C)C)NC(=O)[C@H](CCCCN)NC(=O)[C@H](CCCCN)NC(=O)[C@H](CC(C)C)NC(=O)[C@H](CC(C)C)NC(=O)[C@H](CCCCN)NC(=O)[C@H](CCSC)NC(=O)[C@H](C)NC(=O)[C@H](CCCCN)NC(=O)[C@@H]1CCCN1C(=O)[C@H](C)N)C(=O)NCC(=O)NCC(=O)NCC(=O)NCC(=O)N[C@@H](CO)C(=O)NCC(=O)NCC(=O)NCC(=O)NCC(=O)N[C@@H](CO)C(=O)N[C@@H](Cc1ccc(O)c(O)c1)C(=O)N[C@@H](Cc1ccc(O)c(O)c1)C(=O)N[C@@H](Cc1ccc(O)c(O)c1)C(=O)N[C@@H](Cc1ccc(O)c(O)c1)C(=O)N[C@@H](Cc1ccc(O)c(O)c1)C(=O)O [NKC-(G4S)2-DOPA5] (H-APKAMKLLKKLLKLQKKGIGGGGSGGGGS[Dopa][Dopa][Dopa][Dopa][Dopa]-OH) are the same in MIC: 8 µM (≈ 26.5 µg/mL) for the first, 8 µM (≈ 29.4 µg/mL) for the second.

First: CC[C@H](C)[C@H](NC(=O)CNC(=O)[C@H](CCCCN)NC(=O)[C@H](CCCCN)NC(=O)[C@H](CCC(N)=O)NC(=O)[C@H](CC(C)C)NC(=O)[C@H](CCCCN)NC(=O)[C@H](CC(C)C)NC(=O)[C@H](CC(C)C)NC(=O)[C@H](CCCCN)NC(=O)[C@H](CCCCN)NC(=O)[C@H](CC(C)C)NC(=O)[C@H](CC(C)C)NC(=O)[C@H](CCCCN)NC(=O)[C@H](CCSC)NC(=O)[C@H](C)NC(=O)[C@H](CCCCN)NC(=O)[C@@H]1CCCN1C(=O)[C@H](C)N)C(=O)NCC(=O)NCC(=O)NCC(=O)NCC(=O)N[C@@H](CO)C(=O)NCC(=O)NCC(=O)NCC(=O)NCC(=O)N[C@@H](CO)C(=O)N[C@@H](Cc1ccc(O)c(O)c1)C(=O)O [NKC-(G4S)2-DOPA1] (HELM PEPTIDE1{A.P.K.A.M.K.L.L.K.K.L.L.K.L.Q.K.K.G.I.G.G.G.G.S.G.G.G.G.S.[O=C(O)[C@H](Cc1ccc(O)c(O)c1)N[*:1]]}$$$$V2.0; N-terminus and C-terminus assumed)
Second: CC[C@H](C)[C@H](NC(=O)CNC(=O)[C@H](CCCCN)NC(=O)[C@H](CCCCN)NC(=O)[C@H](CCC(N)=O)NC(=O)[C@H](CC(C)C)NC(=O)[C@H](CCCCN)NC(=O)[C@H](CC(C)C)NC(=O)[C@H](CC(C)C)NC(=O)[C@H](CCCCN)NC(=O)[C@H](CCCCN)NC(=O)[C@H](CC(C)C)NC(=O)[C@H](CC(C)C)NC(=O)[C@H](CCCCN)NC(=O)[C@H](CCSC)NC(=O)[C@H](C)NC(=O)[C@H](CCCCN)NC(=O)[C@@H]1CCCN1C(=O)[C@H](C)N)C(=O)NCC(=O)NCC(=O)NCC(=O)NCC(=O)N[C@@H](CO)C(=O)NCC(=O)NCC(=O)NCC(=O)NCC(=O)N[C@@H](CO)C(=O)N[C@@H](Cc1ccc(O)c(O)c1)C(=O)N[C@@H](Cc1ccc(O)c(O)c1)C(=O)N[C@@H](Cc1ccc(O)c(O)c1)C(=O)N[C@@H](Cc1ccc(O)c(O)c1)C(=O)N[C@@H](Cc1ccc(O)c(O)c1)C(=O)N[C@@H](Cc1ccc(O)c(O)c1)C(=O)N[C@@H](Cc1ccc(O)c(O)c1)C(=O)O [NKC-(G4S)2-DOPA7] (H-APKAMKLLKKLLKLQKKGIGGGGSGGGGS[Dopa][Dopa][Dopa][Dopa][Dopa][Dopa][Dopa]-OH; N-terminus and C-terminus assumed)
The MIC of the first is 2-fold lower: 8 µM (≈ 23.7 µg/mL) for the first, 16 µM (≈ 64.6 µg/mL) for the second.

APKAMKLLKKLLKLQKKGI [NKC] showed an MIC of 1 µM.

system: E. coli; assay: Antimicrobial activity of the coated surface (modified ISO 22196 / colony counting assay); format: cell-based, Escherichia coli; conditions: coated on polystyrene at 25, 50 and 100 μM, E. coli cultured 24 hours
Procedure: In order to confirm the antimicrobial activity in the state where the antimicrobial peptides are coated, the experiment was carried out by an ISO 22196 method in which some steps were changed. Based on the results of Experimental Example 2-1 above, the experiment on the antimicrobial activity was carried out by only using the NKCs to which 3, 5, and 7 DOPA moieties were conjugated (i.e., NKC-L-O3, NKC-L-O5, NKC-L-O7, respectively). Each of NKC-L-O3, NKC-L-O5, and NKC-L-O7 was coated on a polystyrene surface at different concentrations of 25 μM, 50 μM, and 100 μM, and then E. coli in logarithmic phase (10^6 cell/mL) was cultured on the coated surface for 24 hours. After the culture, the culture medium was diluted to a certain concentration and smeared on a plate, and the CFU values were confirmed after 16 hours. The E. coli death level, calculated by comparing the above CFU values with CFU values of the uncoated surface, is represented using the following equation.
Antimicrobial Activity=(1−CFU of Surface of Sample/CFU of Control)×100
In order to measure the antimicrobial activity of NKC-L-O5 (100 μM) according to coating time, a colony counting assay was carried out. […] The plate was cultured at 37° C. for 16 hours, and then the colonies were counted.

CC[C@H](C)[C@H](NC(=O)CNC(=O)[C@H](CCCCN)NC(=O)[C@H](CCCCN)NC(=O)[C@H](CCC(N)=O)NC(=O)[C@H](CC(C)C)NC(=O)[C@H](CCCCN)NC(=O)[C@H](CC(C)C)NC(=O)[C@H](CC(C)C)NC(=O)[C@H](CCCCN)NC(=O)[C@H](CCCCN)NC(=O)[C@H](CC(C)C)NC(=O)[C@H](CC(C)C)NC(=O)[C@H](CCCCN)NC(=O)[C@H](CCSC)NC(=O)[C@H](C)NC(=O)[C@H](CCCCN)NC(=O)[C@@H]1CCCN1C(=O)[C@H](C)N)C(=O)NCC(=O)NCC(=O)NCC(=O)NCC(=O)N[C@@H](CO)C(=O)NCC(=O)NCC(=O)NCC(=O)NCC(=O)N[C@@H](CO)C(=O)N[C@@H](Cc1ccc(O)c(O)c1)C(=O)N[C@@H](Cc1ccc(O)c(O)c1)C(=O)N[C@@H](Cc1ccc(O)c(O)c1)C(=O)O [NKC-(G4S)2-DOPA3] (H-APKAMKLLKKLLKLQKKGIGGGGSGGGGS[Dopa][Dopa][Dopa]-OH; N-terminus and C-terminus assumed) was tested, and the “antimicrobial activity in coated state, dependence” value was “antimicrobial activity dependent on the number of DOPA moieties and the concentration of the NKC”.
